From patent US10912816B2, “Obesity-related genes and their proteins and uses thereof” (THE TRUSTEES OF COLUMBIA UNIVERSITY IN THE CITY OF NEW YORK, priority 2010, dated 2021)
Entries after “also recorded” stand apart in the source; their conditions may differ.

Experiments:
[1] = Body weight and 24 hour feeding behavior in DIO rats (BioDaq Food Intake Monitoring System); assay type: in vivo; conditions: DIO rats on treatment
Protocol: Obese adult female Wistar rats (n=4/group) received single daily injections (sc) of vehicle or Spexin (35 μg/kg BW). Body weights and food intake were measured daily. Average daily food intake (FIG. 22A) and body weight (FIG. 22B) for each group was recorded for each 24 hr period. 24 hr food intake was reduced in the Spexin treated animals (dark circles) by Day 3. […] This effect persisted well beyond the immediate treatment period, and was apparent out to Day 7.
A more detailed analysis of hourly feeding behaviors, including 1) number of “meals” during a 24 hr light/dark cycle, and 2) meal duration and incidence were continuously recorded by a BioDaq Food Intake Monitoring System (FIG. 23). Pre-treatment baselines (FIG. 23A), on-treatment responses (FIG. 23B), early (FIG. 23C) and late (FIG. 23D) “wash-out” periods are presented. […]
Obese (DIO) adult female Wistar rats (n=4/group) received single daily injections (sc) of vehicle or Spexin (35 μg/kg BW). Individual body weights and food intake were measured and recorded daily, and the average food intake and body weight for each group was recorded for each 24 hour period. For a more detailed analysis of hourly feeding behaviors, number of feeding events or “meals” during a 24 hour light/dark cycle, and frequency and durations of individual meals were continuously recorded via a BioDaq Food Intake Monitoring System (New Brunswick, N.J.).

[2] = Conditioned taste aversion testing; assay type: in vivo, adult female Wistar rats; conditions: ip injection on test days 1-3; spexin 70 μg/kg, LiCl 63.5 mg/kg body weight (FIG. 29)
Protocol: After 20 hrs of water deprivation, rats were offered a single bottle containing 0.1% sodium saccharin for 20 min, followed by an ip injection of physiological saline (n=6), 70 μg spexin/kg body weight (n=6), or 63.5 mg LiCl/kg body weight (0.15M LiCl) (n=5) after an additional 20 min. Injections were administered on test days 1-3, with no injection on the final test day. […] Data points represent mean±SEM.
Conditioned taste aversion studies were conducted using adult female Wistar rats according to established protocols [P27-P29]. For training, rats were water but not food deprived for 20 hrs (1800-1400 hrs the following day), then offered a single bottle of water ad libitum for 20 min. Training sessions took place on 2 days of each week, spaced at 3-4 day intervals, to allow recovery of normal food intake and body weight. A total of 7 training sessions were conducted, by which time all animals had learned to drink promptly when fluid was offered. Testing was initiated on the same schedule, with 0.1% sodium saccharin rather than water as the available liquid. On test days 1-3 groups of rats were injected ip with either physiological saline, spexin (70 μg/kg body weight), or LiCl (63.5 mg/kg body weight). All groups experienced their first saccharin exposure and injection on test day 1. […]

Structure (SMILES) | toxicity, nausea or taste aversion behaviors [1] | toxicity, nausea or taste aversion behaviors ([1]; listed as spexin) | total amount of 0.1% saccharin solution consumed vs saline [2]
CSCC[C@H](NC(=O)[C@H](C)NC(=O)[C@H](CCC(N)=O)NC(=O)[C@@H]1CCCN1C(=O)[C@@H](NC(=O)[C@H](Cc1c[nH]c2ccccc12)NC(=O)[C@@H](N)CC(N)=O)[C@@H](C)O)C(=O)N[C@@H](CC(C)C)C(=O)N[C@@H](Cc1ccc(O)cc1)C(=O)N[C@@H](CC(C)C)C(=O)N[C@@H](CCCCN)C(=O)NCC(=O)N[C@@H](C)C(=O)N[C@@H](CCC(N)=O)C(N)=O [Spexin, NWTPQAMLYLKGAQ-amide] | No indications of nausea or taste aversion behaviors; also recorded: No overt signs of Spexin-induced toxic effects | did not exhibit overt toxicity or nausea | No significant differences; also recorded: no signs of taste aversion were detected
[Cl-].[Li+] [LiCl, reference compound] |  |  | significantly less
